Measurements taken from patent publication US9597297B2, “Combination of pilocarpin and methimazol for treating Charcot-Marietooth disease and related disorders” (PHARNEXT, priority 2008, dated 2017).
“Also recorded” adds a separate entry of the source.

What was measured:
PMP22 mRNA = PMP22 mRNA level by RT-Q-PCR in RT4-D6P2T schwannoma cells; format: cell-based, rat; details: 8 hrs, Methimazole 0.1 nm, Pilocarpine 0.001 nm, alone or combined
Protocol: Rat schwannoma RT4-D6-P2T cell line (ATCC #CRL2468™) is defrosted in DMEM (ATCC #30-2002) and 10% FCS (invitrogen #10106). The cells are maintained at 37° C. in a humidified incubator, in an atmosphere of air (95%.)—CO2 (5%). At passage n°4, cells are dissociated by trypsinization (+1 ml of Trypsin-EDTA, 0.25%-0.53 mM; Invitrogen) 5 to 15 min at 37° C. The reaction is stopped by addition of DMEM containing 10% of foetal bovine serum (FBS). […] are counted in a Neubauer cytometer using the trypan blue exclusion test (Sigma). The suspension is triturated with a 10 ml pipette and the cells are then centrifuged at 350×g for 10 min at room temperature. […]
Quantitative RT-PCR is used to compare the levels of PMP22 mRNA after drug stimulation, relative with housekeeping RPS9 mRNA in RT4-D6P2T cell line.
8 hrs after drug incubation, cells are rinsed with cold sterilized PBS, total RNAs from each cell sample are extracted and purified from SC using the Qiagen RNeasy micro kit (Qiagen #74004). Nucleic acids are quantified by Nanodrop spectrophotometer using 1 μl of RNA sample. The RNA integrity is determined through a BioAnalyzer (Agilent) apparatus. […]
In another experiment drugs (listed in Table 1) are incubated with rat schwannoma cell line during 8 hrs and PMP22 mRNA expression level was quantified by RT-Q-PCR.

[1] = system: CMT transgenic rat model (PMP22 transgenic rats); assay: Bar test in CMT transgenic rats; format: in vivo; details: for time of treatment at which bar test effect becomes statistically significant: force-feeding; for bar test performances: female CMT TG rats vs TG placebo, methimazole 0.35 mg/kg, pilocarpine 0.2 mg/kg as printed in b214
Excerpt: The inventors have tested compounds and combinations for therapeutic effect in CMT transgenic rat model, a hemizygous PMP22 transgenic rats bearing three additional copies of mouse PMP22 gene show signs of demyelination in peripheral and cranial nerves, (Sereda et al., 1996; Grandis et al., 2004). At the mRNA level, an average 1.6-fold overexpression of PMP22 in CMT rats correlates with the clinical phenotype. A putative threshold level of PMP22 overexpression at which the wild type gene turns into a disease gene represents an obvious “target” to reach by treatment aimed at reducing PMP22 gene expression.
The inventors have tested the compounds and combinations for therapeutic effect in a rat model. The experimental groups are formed with young rats of both genders separately. The rats are assigned to the groups following randomization schedule based on the body weight. In some experiments the randomization is based on the performances of the rats in the bar test. Both genders are represented by separate control littermates groups that are numerically equal or bigger than the treatment groups.
The rats are treated chronically with drugs—force fed or injected by Alzet osmotic subcutaneous pump (DURECT Corporation Cupertino, Calif.), depending on each drug bioavailability during 3 or 6 weeks.
Each three or four weeks the animals are subjected to a behavioural test. Each test is conducted by the same investigator in the same room and at the same time of the day; this homogeneity is maintained throughout entire experiment. All treatments and genotype determination are blinded for the investigator. “Bar test” and “Grip strength” has been mainly used to access the performance throughout study. The schedule of the bar test may change as the animal growth (in order to avoid the bias due to the learning, for example).
The bar test evaluates rats' ability to hold on a fix rod. […] The rat is placed on its four paws on the middle of the rod (diameter: 2.5 cm; length: 50 cm; 30 cm above the table). Trials are performed consecutively; the number (5 or 10) and the duration (30 or 60 sec) of trials in our experiments have been depending on batches of the animals. This variability in the testing has been introduced in order to determine the schedule appropriated to the best detection of the motor deficiency in the CMT rats in the course of the experiments.
Performance indices are recorded on each session: • The number of trials needed to hold for 60 sec or 30 sec on the rod. • The mean time spent on the bar (i.e. the fall latency) in each trial and the average on the session. In the experimental procedures the session ends after the rat has stayed two times for a cut-off time, i.e. 30 or 60 s, on the bar. A performance of the cut-off time (30 s or 60 s) is assigned to trials not completed. • The number of falls.

Compound: CC[C@@H]1C(=O)OC[C@@H]1Cc1cncn1C [pilocarpine, (3S,4R)-3-ethyl-4-[(3-methylimidazol-4-yl)methyl]oxolan-2-one]
- PMP22 mRNA level of expression (PMP22 mRNA): no significant activity
- bar test performance compared with WT placebo group ([1]; CMT TG rats, daily forced feeding): no more significantly differs from that of the WT placebo group
- time of treatment at which bar test effect becomes statistically significant ([1]; CMT TG rats): 8 weeks
- bar test performances ([1]; daily forced feeding): improve bar test performances; also recorded: significantly more performing

Compound: Cn1cc[nH]c1=S [methimazole, 1-methyl-3H-imidazole-2-thione]
- PMP22 mRNA level of expression (PMP22 mRNA): no significant activity
- time of treatment at which bar test effect becomes statistically significant ([1]; CMT TG rats): 8 weeks
- bar test performances ([1]; daily forced feeding): significantly more performing
- bar test performances ([1]; daily forced feeding, listed as Methimazole): improve bar test performances
